Measured values: patent US12589143B2, “Human anti-PD-L1 peptide vaccines and methods of their use” (priority 2019, dated 2026)
Where no end group is shown, it is not given here.

Key:
PD-1/PD-L1 interaction = target: T1, PD-1/PD-L1 interaction (Homo sapiens, UniProt Q9NZQ7); experiment: PD-1/PD-L1 blockade bioassay (Promega); type: cell-based; details: antibodies from immunized rabbits, compared to Nivolumab and Atezolizumab
T1 construct: host or cells: PD-L1 aAPC/CHO-K1 cells and PD-1 effector cells
T1 sequence (Q9NZQ7 19-290): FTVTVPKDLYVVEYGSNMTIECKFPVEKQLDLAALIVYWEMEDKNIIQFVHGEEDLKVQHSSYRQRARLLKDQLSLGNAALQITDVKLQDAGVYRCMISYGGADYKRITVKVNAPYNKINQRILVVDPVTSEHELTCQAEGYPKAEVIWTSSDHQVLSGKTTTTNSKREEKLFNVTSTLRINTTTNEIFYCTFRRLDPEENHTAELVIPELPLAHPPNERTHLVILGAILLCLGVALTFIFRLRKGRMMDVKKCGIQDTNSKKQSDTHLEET
Description: The assay was performed following the manufacturer's protocol for the PD-1/PD-L1 blockade bioassay (Promega).
The bioluminescent cell-based PD-1/PD-L1 blockade bioassays provide a good option for rapid screening of therapeutic antibodies or other compounds developed to interfere with PD-1-signaling interaction. PD1/PD-L1 blockade assay was used to test the functionality of 3 anti-PD-L1 antibodies. It was observed that purified polyclonal anti-PD-L1 antibody from the rabbits was able to block PD1/PD-L1 interaction similar to commercial anti-human PD-L1 antibody (FIG. 12). […] In FIG. 12, we show the capacity of each of the PD-L1 vaccines to block the PD-1:PD-L1 interaction as compared to Nivolumab and Atezolizumab. Remarkably only PD-L1 130-147 antibodies were effective
The assay was performed following the manufacturer's protocol for the PD-1/PD-L1 blockade bioassay (Promega). In brief, 4×10^5 aAPC/CHO-K1 or PD-L1 aAPC/CHO-K1 cells were seeded into 96-well plates in RPMI-1640 with 10% FBS. After overnight culturing, the medium was aspirated, and serially diluted purified PD-L1 or PD-1 antibodies, as well as Nivolumab and Atezolizumab antibodies (as reference antibodies) were added. Next, PD-1 effector cells were co-cultured and plate was kept for 5 h at 37° C. in a humidified 5% CO2 incubator. Following mixing with Bio-Glo Reagent, the luminescence was measured with a luminescence plate reader, SpectraMax M3 plate reader (Molecular Devices).

D2F2 WT tumor cells = experiment: D2F2 WT tumor challenge in Balb/c mice; type: in vivo; details: day 21 and day 28
Description: Balb/c mice 6-8 weeks old, were immunized with G1 and G2 mice were treated with anti-PD-1 mAb (29F.1A12) (G1) or anti-PD-L1 mAb (10F.9G2) (G2 or with MVF-PD-L1 vaccine constructs [PD-L1(92-110)(G3) PD-L1(130-147)(G4)] prior to tumor challenge. Similarly, G10, G11 and G12 are control groups and were not treated prior to tumor cell challenge. G13, G14 and G15 mice were immunized with 100 ug MVF-HER-2(266-296)+100 ug MVF-HER-2(597-626)+ISA720 per mouse for G13, 100 ug MVF-PD-1 (92-110)+100 ug MVF-HER-2(266-296)+100 ug MVF-HER-2(597-626)+ISA720 per mouse for G14 and 100 ug MVF-PD-L1 (130-147)+100 ug MVF-HER-2(266-296)+100 ug MVF-HER-2(597-626)+ISA720 per mouse for G15. The mice were immunized up to 4 times before tumor challenge. […] All the mice had been monitored at least twice per week, and the tumors were measured with calipers as data indicated.
The tumor volumes were measured by calipers and calculated by formula: (length×width2)/2. […] All the peptides immunized groups of mice are shown with less tumor burden than PBS group and mAbs treated groups as well.
G0, G1 and G2 are control groups, mice in these groups were not treated before tumor cells challenge. Following challenge with D2F2 WT tumor cells, G0 mice were treated with PBS (i.p.) twice per week start from day 2 post challenge served as negative control, G1 and G2 mice were treated with anti-PD-1 mAb (29F.1A12) or anti-PD-L1 mAb (10F.9G2), respectively. Treatment for G1 and G2 mouse groups was also started from day 2 post tumor challenge, with 100 ug administered/mouse twice a week. G1 and G2 served as positive control. […] All the mice had been monitored at least twice per week, and the tumors were measured with calipers as data indicated (FIG. 26).
Mice were immunized with designed peptides vaccines as descripted in FIG. 26, which indicated as 1Y, 2Y, 3Y and 4Y here and with 3 weeks apart. […] And the mice were monitor at least twice per week, and the tumors were measured as shown in the data figures.
The tumor volumes were measured by calipers and calculated by formula: (length×width2)/2. […]

[1] = test system: HER-2 positive breast cancer; details: patients with untreated HER-2 positive breast cancer; pertuzumab added to docetaxel and trastuzumab vs without; cited from earlier work

Substance | blocking of PD-1/PD-L1 interaction (PD-1/PD-L1 interaction) | tumor volume (D2F2 WT tumor cells) | overall survival [1] [months] | progression-free survival [1] [months]
MVF-PD-1(92-110) (KLLSLIKGVIVHRLEGVEDCRFRVTQLPNGRDFHMSV-NH2) | unable to block PD-1 and PD-L1 | smaller tumor volume than PBS negative control group and both of mAbs positive control groups |  | 
pertuzumab |  |  | 56.5 | 18.5
